According to US9023858B2, “Substituted pyrido[2,3-d]pyrimidines as delta-5-desaturase inhibitors” (Takeda Pharmaceutical Company Limited, priority 2010, dated 2015):
Where a name gives a salt, the structure may show the parent alone.

Columns and labels:
[1] = molecular target: T1, delta-5-desaturase (Rattus norvegicus, UniProt Q920R3); assay: Inhibitory activity on binding of [3H]-labelled Reference Example 1 ligand to delta-5-desaturase (rat liver microsome fraction); conditions: test compound 10 μM; for inhibition at 10 µM: 3 nM tritiated ligand of Reference Example 1, read-out: Binding inhibitory activity against compound bind to delta-5-desaturase Binding inhibition rate (%) at 10 μM
T1 construct: a rat liver microsome fraction (10 μl) diluted to 3 mg/ml with a microsome buffer; from tissue; host or cells: rat liver microsome fraction
Protocol: Inhibitory Activity on Binding of N-[2-({4-oxo-3-[4-(2,2,2-trifluoroethoxy)[2,6-^3H2]phenyl]-3,4-dihydrothieno[3,4-d]pyrimidin-2-yl}sulfanyl)ethyl]acetamide (Reference Example 1) to delta-5-desaturase)
All tests were performed at room temperature at 200 μL/well. A rat liver microsome fraction (30 μg/well) was preincubated with a test compound at a final concentration of 10 μM for 15 min in an assay buffer (10 mM Tris-HCl (pH 7.5), 100 mM KCl, 10 mM NaF, 3 mM MgCl2, 0.005% Tween20 and 1 mM GSH). N-[2-({4-oxo-3-[4-(2,2,2-trifluoroethoxy) [2,6-^3H2]phenyl]-3,4-dihydrothieno[3,4-d]pyrimidin-2-yl}sulfanyl)ethyl]acetamide was added to a final concentration of 3 nM and the mixture was incubated for 150 min. For Bound/Free separation, the membrane fraction was added on a GF/C glass filter using a cell harvester. The GF/C glass filter was washed 5 times with 300 μl of ice-cooled assay buffer (without 0.005% Tween) to separate the ligand bound to delta-5-desaturase. 50 μl of MicroScinti 0 was added, and the radioactivity on the filter was measured by TopCount. To evaluate non-specific binding, 10 μM N-[2-({4-oxo-3-[4-(2,2,2-trifluoroethoxy)phenyl]-3,4-dihydrothieno[3,4-d]pyrimidin-2-yl}sulfanyl)ethyl]acetamide was used. The inhibitory rate (%) of the test compound (10 μM) on the binding of N-[2-({4-oxo-3-[4-(2,2,2-trifluoroethoxy) [2,6-^3H2]phenyl]-3,4-dihydrothieno[3,4-d]pyrimidin-2-yl}sulfanyl)ethyl]acetamide to delta-5-desaturase was determined.

[2] = molecular target: T1, delta-5-desaturase; assay: Delta-5-desaturase inhibitory activity using rat liver microsome; type: biochemical; conditions: test compound 10 μM
Protocol: Delta-5-Desaturase Inhibitory Activity Using Rat Liver Microsome
The inhibitory activity of the test compound on delta-5-desaturase was measured by the method described below. To a solution of the test compound in DMSO prepared in advance was secondarily diluted with a buffer (300 mM NaH2PO4 [pH 7.4], 450 mM KCl, 30 mM NaF, 9 mM MgCl2, 4.5 mM glutathione [reduced form], 0.3% BSA [fatty acid free, SIGMA]) to give an assay buffer. The assay buffer (10 μl) was dispensed to a polypropylene deep 96-well block, and a rat liver microsome fraction (10 μl) diluted to 3 mg/ml with a microsome buffer (10 mM Tris-HCl [pH 7.4], 1 mM EDTA, 250 mM sucrose) was added. The enzyme reaction was started by adding 9 mM NADH, 9 mM ATP, 0.9 mM CoA, 10 μCi/ml (8E,11E,14E)-(1-^14C)eicosa-8,11,14-trienoic acid (PerkinElmer Inc.) (10 μl). The enzyme reaction was performed for 120 min at room temperature, and discontinued by the addition of 10 μl of 2.5M NaOH. After discontinuation of the reaction, the plate was sealed and incubated overnight at 55° C. to allow saponification. The fatty acid was extracted with solvent based on the Bligh & Dyer method described in Can. J. Biochem. Physiol., vol. 37, page 911 (1959) by adding formic acid:methanol:chloroform (1:6:3) (200 μl), maintaining the single layer state, sufficiently stirring the mixture and adding pure water (120 μl) for separation into two layers. The lower chloroform layer (10 μl) was spotted on a reversed-phase TLC plate (RP-18, 1154230001, Merck Japan, Ltd.), developed with acetonitrile:pure water:acetic acid (95:4.5:0.5), and the dried TLC plate was transcribed on Imaging Plate (Fuji Photo Film Co., Ltd.) for 5 hr or longer. The detection was performed using BAS-5000 (Fuji Photo Film Co., Ltd.), and the obtained spot image was numerically converted by Multi Gauge Ver2.3 (Fuji Photo Film Co., Ltd.) and a delta-5-desaturase inhibitory rate (%) of 10 μM test compound was determined.

[3] = molecular target: T2, delta-5-desaturase (Homo sapiens, UniProt O60427); assay: Delta-5-desaturase inhibitory activity using HepG2 cell; type: cell-based; conditions: test compound 1 μM
T2 construct: endogenous in cells; host or cells: HepG2
Protocol: Delta-5-Desaturase Inhibitory Activity Using HepG2 Cell
HepG2 was plated on a 96-well plate at 1×10^5 cells/well, and cultured overnight in DMEM (Dulbecco's modified Eagle medium) containing 10% FBS (fetal bovine serum). After washing (200 μL×2) with PBS (phosphate buffered saline), 40 μL of a reaction medium (DMEM, penicillin/streptomycin, 0.3% BSA) containing the test compound was added, and the mixture was preincubated in a CO2 incubator at 37° C. for 30 min. The reaction was started by adding a reaction medium (20 μL) containing 0.1 μCi [^14C]Eicosatrienoic acid, and the mixture was incubated in a CO2 incubator at 37° C. Incubation was performed for 3 hr, the cells were washed twice with 200 μL of PBS, detached with 50 μL of trypsin-EDTA and placed on a 96-deep well block. Furthermore, 20 μL of 2.5N NaOH was added, the plate was sealed and incubated overnight at 55° C. to allow saponification. The fatty acid extraction included acidifying with 10 μL of formic acid, adding chloroform:methanol (1:4), stirring, and further adding 200 μL of pure water to separate into two layers. The operation after development with TLC followed the method of detection system using TLC in a system using a rat liver microsome. A delta-5-desaturase inhibitory rate (%) of 1 μM test compound was determined.

[4] = molecular target: T3, delta-5-desaturase (Mus musculus, UniProt Q920L1); assay: Delta-5-desaturase inhibitory action in vivo (liver AA/DGLA ratio in mice); conditions: 3 mg/kg by gavage for 4 days; male C57BL/6J mice; liver phospholipid fraction; solvent administration group as 100%
T3 construct: the mice were anesthetized, and the liver was isolated; tissue CLEA Japan, Inc; host or cells: liver of C57BL/6J mice (in vivo dosing)
T3 sequence (Q920L1 1-447): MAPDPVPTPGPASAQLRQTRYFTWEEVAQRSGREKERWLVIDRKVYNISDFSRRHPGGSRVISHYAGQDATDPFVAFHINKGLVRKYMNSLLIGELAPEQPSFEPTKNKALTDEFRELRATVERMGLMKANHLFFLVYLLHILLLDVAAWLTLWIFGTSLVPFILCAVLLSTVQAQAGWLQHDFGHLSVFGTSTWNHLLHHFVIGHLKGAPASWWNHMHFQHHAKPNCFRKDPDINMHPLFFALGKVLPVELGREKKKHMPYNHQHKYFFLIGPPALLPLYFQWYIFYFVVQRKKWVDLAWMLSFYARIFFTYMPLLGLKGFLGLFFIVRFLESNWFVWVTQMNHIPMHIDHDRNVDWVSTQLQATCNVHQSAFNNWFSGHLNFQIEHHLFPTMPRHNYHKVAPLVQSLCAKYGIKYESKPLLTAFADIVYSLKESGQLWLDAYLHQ
Protocol: Delta-5-Desaturase Inhibitory Action In Vivo
The delta-5-desaturase inhibitory action of the test compound in vivo was evaluated by the following method. A suspension of a test compound (3 mg/kg) in 0.5% methylcellulose was administered by gavage every morning at 10 mL/kg for 4 days to 7- to 9-week-old male normal mice (C57BL/6J, CLEA Japan, Inc.) acclimated with a normal chow feed (CE-2, CLEA Japan, Inc.) in individual cages. In the next morning of the final administration, the mice were anesthetized, and the liver was isolated. Total lipid was extracted from about 40 mg of a liver sample with hexane-propanol solution, and a phospholipid fraction was extracted using a solid phase extraction column (Sep-Pak Vac NH2, Waters) and labeled with an esterified long-chain and short-chain fatty acid labeling reagent (YMC). The arachidonic acid and dihomo-γ-linolenic acid contents of the sample after labeling were measured by high performance liquid chromatography (Agilent 1200, Agilent Technologies). The arachidonic acid (AA) content was divided by the content of dihomo-γ-linolenic acid (DGLA) to obtain an AA/DGLA ratio. The decrease rate of the test compound administration group was calculated based on the AA/DGLA ratio of the solvent administration group as 100%, which was used as an index of the liver delta-5-desaturase inhibitory action in vivo.

T1 sequence (Q920R3 whole entry): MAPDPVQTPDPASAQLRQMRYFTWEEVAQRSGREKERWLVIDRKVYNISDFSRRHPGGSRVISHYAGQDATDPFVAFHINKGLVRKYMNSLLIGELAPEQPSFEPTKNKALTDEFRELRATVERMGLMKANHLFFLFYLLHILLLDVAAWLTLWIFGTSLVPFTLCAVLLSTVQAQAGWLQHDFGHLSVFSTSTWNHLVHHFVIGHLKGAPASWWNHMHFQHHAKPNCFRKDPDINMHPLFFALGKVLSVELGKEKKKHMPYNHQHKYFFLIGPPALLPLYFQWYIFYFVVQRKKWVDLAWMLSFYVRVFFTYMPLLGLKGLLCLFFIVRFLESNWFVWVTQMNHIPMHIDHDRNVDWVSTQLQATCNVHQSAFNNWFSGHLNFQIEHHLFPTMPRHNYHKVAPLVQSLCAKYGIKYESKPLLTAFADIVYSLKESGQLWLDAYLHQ
T2 sequence (O60427 whole entry): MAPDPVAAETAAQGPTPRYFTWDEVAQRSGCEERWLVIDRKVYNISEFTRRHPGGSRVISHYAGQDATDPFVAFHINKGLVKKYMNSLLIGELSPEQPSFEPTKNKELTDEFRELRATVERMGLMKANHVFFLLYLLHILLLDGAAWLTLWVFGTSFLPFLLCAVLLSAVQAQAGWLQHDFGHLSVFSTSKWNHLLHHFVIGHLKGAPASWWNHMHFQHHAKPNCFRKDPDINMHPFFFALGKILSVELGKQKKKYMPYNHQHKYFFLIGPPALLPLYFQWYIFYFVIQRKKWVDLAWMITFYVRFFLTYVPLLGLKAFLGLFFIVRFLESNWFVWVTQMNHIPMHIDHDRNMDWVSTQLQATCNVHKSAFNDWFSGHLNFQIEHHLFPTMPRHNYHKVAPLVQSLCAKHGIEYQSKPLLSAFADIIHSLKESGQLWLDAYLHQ

inhibition at 10 µM [1] [%]	inhibition at 10 µM [2] [%]	inhibition at 1 µM [3] [%]	lowering rate (%) of arachidonic acid/dihomo-γ-linolenic acid ratio [4] [%]	Binding inhibitory activity against compound bind to delta-5-desaturase Binding inhibition rate (%) at 10 μM ([1]; 3 nM tritiated ligand of Reference Example 1, sodium salt) [%]	delta-5-desaturase inhibitory activity (at liver microsome) Inhibitory activity (%) at 10 μM ([2]; sodium salt, 10 µM) [%]	SMILES
99	102	96	64	–	–	CCOc1nc2nc(OC)ccc2c(=O)n1-c1ccc(OCC(F)(F)F)cc1 [Example 4, 2-ethoxy-7-methoxy-3-[4-(2,2,2-trifluoroethoxy)phenyl]pyrido[2,3-d]pyrimidin-4(3H)-one]
99	104	102	69	–	–	O=c1ccc2c(=O)n(-c3ccc(OCC(F)(F)F)cc3)c(OC3CCC(F)(F)CC3)nc2[nH]1 [Example 15, 2-[(4,4-difluorocyclohexyl)oxy]-3-[4-(2,2,2-trifluoroethoxy)phenyl]pyrido[2,3-d]pyrimidine-4,7(3H,8H)-dione]
92	100	101	68	–	–	O=C1CCc2c(nc(OCC(F)(F)F)n(-c3ccc(OCC(F)(F)F)cc3)c2=O)N1 [Example 22, 2-(2,2,2-trifluoroethoxy)-3-[4-(2,2,2-trifluoroethoxy)phenyl]-5,6-dihydropyrido[2,3-d]pyrimidine-4,7(3H,8H)-dione]
91	–	98	67	–	–	O=C1CCc2c(nc(CCC(F)(F)F)n(-c3ccc(OCC(F)(F)F)cc3)c2=O)N1 [Example 39, 3-[4-(2,2,2-trifluoroethoxy)phenyl]-2-(3,3,3-trifluoropropyl)-5,6-dihydropyrido[2,3-d]pyrimidine-4,7(3H,8H)-dione]
96	101	102	69	–	–	O=c1ccc2c(=O)n(-c3ccc(OCC(F)(F)F)cc3)c(OCC(F)F)nc2[nH]1 [Example 16, 2-(2,2-difluoroethoxy)-3-[4-(2,2,2-trifluoroethoxy)phenyl]pyrido[2,3-d]pyrimidine-4,7(3H,8H)-dione]
–	–	–	70	96	99	O=c1ccc2c(=O)n(-c3ccc(OCC(F)(F)F)cc3)c(OCC(F)(F)F)nc2[nH]1 [Example 12, 2-(2,2,2-trifluoroethoxy)-3-[4-(2,2,2-trifluoroethoxy)phenyl]pyrido[2,3-d]pyrimidine-4,7(3H,8H)-dione sodium salt]
94	100	101	73	–	–	CCSc1nc2nc(OC)ccc2c(=O)n1-c1ccc(OCC(F)(F)F)cc1 [Example 1, 2-(ethylsulfanyl)-7-methoxy-3-[4-(2,2,2-trifluoroethoxy)phenyl]pyrido[2,3-d]pyrimidin-4(3H)-one]
91	96	93	67	–	–	CCOc1nc2c(c(=O)n1-c1ccc(OCC(F)(F)F)cc1)CCC(=O)N2 [Example 23, 2-ethoxy-3-[4-(2,2,2-trifluoroethoxy)phenyl]-5,6-dihydropyrido[2,3-d]pyrimidine-4,7(3H,8H)-dione]
